In ChEMBL document CHEMBL1765070, “Structure-based design of potent and selective 3-phosphoinositide-dependent kinase-1 (PDK1) inhibitors” (J Med Chem, 2011):

How the values were obtained:
TGF-beta receptor type-1 = molecular target: T1, TGF-beta receptor type-1 (Homo sapiens, UniProt P36897); test: Inhibition of ALK5; conditions: read-out: pIC50 (converted)
T1 sequence (P36897 whole entry): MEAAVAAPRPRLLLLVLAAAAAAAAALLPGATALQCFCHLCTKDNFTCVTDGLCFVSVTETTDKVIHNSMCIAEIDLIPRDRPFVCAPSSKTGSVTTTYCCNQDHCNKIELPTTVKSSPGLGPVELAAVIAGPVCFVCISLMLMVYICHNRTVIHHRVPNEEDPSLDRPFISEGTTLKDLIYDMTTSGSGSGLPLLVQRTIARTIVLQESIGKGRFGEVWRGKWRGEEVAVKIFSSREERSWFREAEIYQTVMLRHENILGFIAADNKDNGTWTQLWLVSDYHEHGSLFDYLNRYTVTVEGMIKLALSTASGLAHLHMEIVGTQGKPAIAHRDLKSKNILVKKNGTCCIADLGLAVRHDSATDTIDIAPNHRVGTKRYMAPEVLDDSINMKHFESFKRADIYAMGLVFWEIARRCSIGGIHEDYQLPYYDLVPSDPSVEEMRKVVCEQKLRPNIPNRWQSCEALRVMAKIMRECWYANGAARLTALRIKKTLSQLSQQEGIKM

[1] = molecular target: T2, 3-phosphoinositide-dependent protein kinase 1 (Homo sapiens, UniProt O15530); test: Inhibition of PDK1
T2 sequence (O15530 whole entry): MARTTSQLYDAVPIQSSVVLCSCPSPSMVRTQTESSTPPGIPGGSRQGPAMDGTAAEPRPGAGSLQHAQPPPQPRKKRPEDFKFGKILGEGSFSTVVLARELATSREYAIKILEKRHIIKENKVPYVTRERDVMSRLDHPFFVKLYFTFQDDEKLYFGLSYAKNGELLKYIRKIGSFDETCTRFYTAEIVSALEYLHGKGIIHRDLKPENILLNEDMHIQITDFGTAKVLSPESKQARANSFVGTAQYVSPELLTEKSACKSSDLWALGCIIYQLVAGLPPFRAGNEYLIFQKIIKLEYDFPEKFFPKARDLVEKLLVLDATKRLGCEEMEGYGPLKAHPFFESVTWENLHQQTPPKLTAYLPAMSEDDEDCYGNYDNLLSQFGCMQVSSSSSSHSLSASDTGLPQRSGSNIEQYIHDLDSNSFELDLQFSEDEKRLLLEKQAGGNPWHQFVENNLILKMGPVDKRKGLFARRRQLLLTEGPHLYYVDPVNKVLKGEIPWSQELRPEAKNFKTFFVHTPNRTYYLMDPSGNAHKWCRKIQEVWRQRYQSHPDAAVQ

Aurora kinase A = molecular target: T3, Aurora kinase A (Homo sapiens, UniProt O14965); test: Inhibition of aurora A
T3 sequence (O14965 whole entry): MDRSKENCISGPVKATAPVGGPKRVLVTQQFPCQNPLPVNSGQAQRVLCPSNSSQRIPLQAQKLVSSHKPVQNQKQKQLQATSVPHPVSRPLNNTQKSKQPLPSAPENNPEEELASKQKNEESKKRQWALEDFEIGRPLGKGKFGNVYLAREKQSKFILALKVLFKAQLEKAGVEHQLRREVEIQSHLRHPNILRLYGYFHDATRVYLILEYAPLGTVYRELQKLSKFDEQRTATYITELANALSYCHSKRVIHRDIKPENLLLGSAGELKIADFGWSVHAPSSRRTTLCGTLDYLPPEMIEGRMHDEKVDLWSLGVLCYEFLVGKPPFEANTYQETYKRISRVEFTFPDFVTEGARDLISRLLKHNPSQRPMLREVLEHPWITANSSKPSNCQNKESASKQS

[2] = molecular target: Rho-associated protein kinase 1 (Homo sapiens, UniProt Q13464); test: Inhibition of ROCK1
Aurora kinase B = Aurora kinase B (Homo sapiens, UniProt Q96GD4); test: Inhibition of aurora B
[3] = molecular target: T2, 3-phosphoinositide-dependent protein kinase 1; test: Inhibition of PDK1-mediated AKT phosphorylation at Thr308 residue in human PC3 cells by ELISA; assay type: cell-based, PC-3
[4] = molecular target: T2, 3-phosphoinositide-dependent protein kinase 1; test: Inhibition of PDK1-mediated RSK phosphorylation at Ser221 residue in human PC3 cells by ELISA; assay type: cell-based, PC-3

Chain of Rho-associated protein kinase 1 (Q13464 whole entry): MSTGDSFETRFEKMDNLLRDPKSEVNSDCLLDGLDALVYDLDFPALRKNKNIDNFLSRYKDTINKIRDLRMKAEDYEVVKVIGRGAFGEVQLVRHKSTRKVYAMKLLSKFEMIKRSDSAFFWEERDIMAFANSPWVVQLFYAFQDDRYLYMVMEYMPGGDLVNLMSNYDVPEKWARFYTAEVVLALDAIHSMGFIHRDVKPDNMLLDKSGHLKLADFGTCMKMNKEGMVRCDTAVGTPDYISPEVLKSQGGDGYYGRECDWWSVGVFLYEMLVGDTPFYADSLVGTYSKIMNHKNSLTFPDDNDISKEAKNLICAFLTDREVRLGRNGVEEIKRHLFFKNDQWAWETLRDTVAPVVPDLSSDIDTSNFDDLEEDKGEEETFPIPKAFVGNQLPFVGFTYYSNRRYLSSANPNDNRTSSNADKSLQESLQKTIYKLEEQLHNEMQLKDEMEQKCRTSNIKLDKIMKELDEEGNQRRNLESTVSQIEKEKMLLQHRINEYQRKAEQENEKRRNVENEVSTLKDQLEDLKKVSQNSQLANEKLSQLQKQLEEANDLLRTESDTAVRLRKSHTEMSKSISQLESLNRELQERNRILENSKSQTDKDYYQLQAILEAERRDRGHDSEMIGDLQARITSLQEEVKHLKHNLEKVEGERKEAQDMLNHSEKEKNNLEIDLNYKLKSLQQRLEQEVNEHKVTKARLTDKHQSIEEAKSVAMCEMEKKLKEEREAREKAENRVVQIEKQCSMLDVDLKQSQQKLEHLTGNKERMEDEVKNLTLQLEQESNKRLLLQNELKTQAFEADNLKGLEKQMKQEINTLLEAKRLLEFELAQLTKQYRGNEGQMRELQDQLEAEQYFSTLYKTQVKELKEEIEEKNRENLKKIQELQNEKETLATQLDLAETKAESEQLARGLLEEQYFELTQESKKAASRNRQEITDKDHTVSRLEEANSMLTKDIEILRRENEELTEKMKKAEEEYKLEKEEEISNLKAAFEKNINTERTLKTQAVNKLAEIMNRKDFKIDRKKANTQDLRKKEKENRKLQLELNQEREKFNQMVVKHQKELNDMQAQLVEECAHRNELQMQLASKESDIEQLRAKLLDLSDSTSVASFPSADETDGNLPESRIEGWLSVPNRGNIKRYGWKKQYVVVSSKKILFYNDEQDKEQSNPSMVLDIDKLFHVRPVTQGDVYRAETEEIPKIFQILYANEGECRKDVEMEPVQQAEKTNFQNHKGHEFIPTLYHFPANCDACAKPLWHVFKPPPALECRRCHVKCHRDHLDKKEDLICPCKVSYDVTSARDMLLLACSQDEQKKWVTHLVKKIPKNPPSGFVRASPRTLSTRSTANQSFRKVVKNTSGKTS
Chain of Aurora kinase B (Q96GD4 whole entry): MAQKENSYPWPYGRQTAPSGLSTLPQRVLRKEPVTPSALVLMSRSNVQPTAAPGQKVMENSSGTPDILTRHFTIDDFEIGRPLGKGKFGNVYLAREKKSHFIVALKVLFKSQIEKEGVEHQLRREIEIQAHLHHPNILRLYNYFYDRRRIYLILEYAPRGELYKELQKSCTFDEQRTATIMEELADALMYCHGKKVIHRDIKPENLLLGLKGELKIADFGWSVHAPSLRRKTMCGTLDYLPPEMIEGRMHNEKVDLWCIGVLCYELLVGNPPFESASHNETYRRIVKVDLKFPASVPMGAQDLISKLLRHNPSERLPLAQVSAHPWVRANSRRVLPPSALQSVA

Row | SMILES | IC50 (TGF-beta receptor type-1) [µM] | IC50 [1] [µM] | IC50 (Aurora kinase A) [µM] | IC50 [2] [µM] | IC50 (Aurora kinase B) [µM] | IC50 [3] [µM] | IC50 [4] [µM]
1 | CC(C)Nc1cc(-c2ccc3c(N)n[nH]c3c2)nc(N)n1 | 0.501 | 0.126 | 2 | > 10 | 15.8 |  | 
2 | CC(C)c1cc(-c2ccc3c(N)n[nH]c3c2)nc(N)n1 | 2 | 0.251 | 3.16 | > 10 | 7.94 |  | 
3 | C[C@H]1CC[C@@H](NC(=O)OC(C)(C)C)CN1c1cc(-c2ccc3c(N)[nH]nc3c2)nc(N)n1 |  |  | 0.501 |  | 1 |  | 
4 | CCNc1cc(-c2ccc3c(N)[nH]nc3c2)nc(N)n1 | 0.501 |  | 2.51 | > 10 | 10 |  | 
5 | CCNc1nccc(-c2ccc3c(N)n[nH]c3c2)n1 |  | 7.94 |  |  |  |  | 
6 | COc1cc(-c2ccc3c(N)n[nH]c3c2)nc(N)n1 | 3.16 | 0.251 | 6.31 | 5.01 | 7.94 |  | 
7 | C[C@@H]1CC[C@H](NC(=O)OC(C)(C)C)CN1c1cc(-c2ccc3c(N)n[nH]c3c2)nc(N)n1 | > 10 |  | 2 | > 10 | 0.0501 |  | 
8 | Nc1nc(-c2ccc3c(N)n[nH]c3c2)cc(N2CCCC(NC(=O)c3ccccc3)C2)n1 (racemic) | > 10 | 0.0631 | 1.26 | > 10 | 0.0251 |  | 
9 | C[C@@H]1CC[C@H](C(=O)Nc2ccccc2)CN1c1cc(-c2ccc3c(N)[nH]nc3c2)nc(N)n1 | 6.31 |  |  | 0.2 | 1 |  | 
10 | CC(C)(C)OC(=O)N[C@H]1CCCN(c2cc(-c3ccc4c(N)n[nH]c4c3)nc(N)n2)C1 | > 10 | 1 | 6.31 | > 10 | 0.316 |  | 
11 | Nc1nc(-c2ccc3c(N)n[nH]c3c2)cc(N2CCCC2)n1 | > 10 | 0.251 | > 10 | > 10 | > 10 |  | 
12 | C[C@H]1COCCN1c1cc(-c2ccc3c(N)n[nH]c3c2)nc(N)n1 | > 10 |  | > 10 | 15.8 | 25.1 |  | 
13 | C[C@@H]1CC[C@@H](C(=O)Nc2ccccc2)CN1c1cc(-c2ccc3c(N)n[nH]c3c2)nc(N)n1 (racemic) | > 10 |  |  | > 10 | 2 |  | 
14 | CC(C)(C)OC(=O)NC1CCCN(c2cc(-c3ccc4c(N)n[nH]c4c3)nc(N)n2)C1 (racemic) | > 10 | 0.0501 | 1.26 | > 10 | 0.398 |  | 
15 | Nc1nc(-c2ccc3c(N)n[nH]c3c2)cc(N2CCC[C@H](C(=O)NC3CCCC3)C2)n1 | > 10 | 0.126 | > 10 | > 10 | > 10 |  | 
16 | C[C@@H]1CO[C@H](C(=O)Nc2ccccc2)CN1c1cc(-c2ccc3c(N)n[nH]c3c2)nc(N)n1 | > 10 |  | 0.2 | 0.158 | 0.316 |  | 
17 | C[C@H]1CC[C@@H](NC(=O)OC(C)(C)C)CN1c1cc(-c2ccc3c(N)[nH]nc3c2)nc(N)n1 (racemic) | > 10 |  | 0.794 | > 10 | 0.158 |  | 
18 | Nc1nc(-c2ccc3c(N)[nH]nc3c2)cc(N2CCO[C@H](C(=O)Nc3ccccc3)C2)n1 | > 10 |  | 1.26 | 0.794 | 3.16 |  | 
19 | C[C@@H]1CC[C@H](C(=O)NC2CCCCC2)CN1c1cc(-c2ccc3c(N)n[nH]c3c2)nc(N)n1 | > 10 | 0.00794 | 5.01 | 0.631 | 1 | 0.472 | 0.316
20 | Nc1nc(-c2ccc3c(N)[nH]nc3c2)cc(N2CCOCC2)n1 | > 10 |  | > 10 | > 10 | > 10 |  | 
21 | CNc1cc(-c2ccc3c(N)n[nH]c3c2)nc(N)n1 | 0.398 | 0.0794 | 3.16 | 7.94 | 12.6 |  | 

Row | SMILES | IC50 (TGF-beta receptor type-1) [µM] | IC50 [1] [µM] | IC50 (Aurora kinase A) [µM] | IC50 [2] [µM] | IC50 (Aurora kinase B) [µM] | IC50 [3] [µM] | IC50 [4] [µM]
22 | CNc1nccc(-c2ccc3c(N)n[nH]c3c2)n1 |  | 1 |  |  |  |  | 
23 | Nc1nc(-c2ccccc2)cc(-c2ccc3c(N)n[nH]c3c2)n1 | 3.16 | 0.2 | 1.58 | > 10 | 2 |  | 
24 | Nc1nc(-c2ccc3c(N)n[nH]c3c2)cc(N2CCO[C@@H](C(=O)Nc3ccccc3)C2)n1 | > 10 | 1 | > 10 | > 10 | > 10 |  | 
25 | Nc1nc(-c2ccc3c(N)n[nH]c3c2)cc(N2CCC[C@@H](C(=O)Nc3ccccc3)C2)n1 | > 10 | 0.126 | 7.94 | 3.16 | 1.58 |  | 
26 | CC(C)(C)OC(=O)N[C@@H]1CCCN(c2cc(-c3ccc4c(N)n[nH]c4c3)nc(N)n2)C1 | > 10 | 0.0251 | 1.58 | > 10 | 5.01 |  | 
27 | Nc1nccc(-c2ccc3c(N)n[nH]c3c2)n1 | 1.58 | 0.398 | 0.398 | 1.58 |  |  | 
28 | CN(C)c1nccc(-c2ccc3c(N)n[nH]c3c2)n1 |  | 20 |  |  |  |  | 
29 | CN(C)c1cc(-c2ccc3c(N)n[nH]c3c2)nc(N)n1 | 5.01 | 0.501 | > 10 | > 10 | > 10 |  | 
30 | Nc1nc(-c2ccc3c(N)n[nH]c3c2)cc(N2CCCCC2)n1 | > 10 | 0.251 | > 10 | > 10 | > 10 |  | 
31 | C[C@@H]1COCCN1c1cc(-c2ccc3c(N)[nH]nc3c2)nc(N)n1 | > 10 |  | 12.6 | 15.8 | 25.1 |  | 
32 | Nc1nc(-c2ccc3c(N)n[nH]c3c2)cc(N2CCC[C@H](C(=O)NC3CCCCC3)C2)n1 | > 10 | 0.0631 | > 10 | 5.01 | 3.98 |  | 
33 | CC(C)[C@@H]1COCCN1c1cc(-c2ccc3c(N)n[nH]c3c2)nc(N)n1 | > 10 | 0.2 | 12.6 | 15.8 | 7.94 |  | 
34 | CC[C@@H]1COCCN1c1cc(-c2ccc3c(N)n[nH]c3c2)nc(N)n1 | > 10 |  | 5.01 | > 10 | > 10 |  | 
35 | C[C@@H]1C[C@@H](N(C)C(=O)CC(C)(C)C)CN(c2cc(-c3ccc4c(N)n[nH]c4c3)nc(N)n2)C1 | > 10 | 0.000631 | 0.0631 | > 10 | 0.2 | 0.022 | 0.116
36 | Nc1nc(Nc2ccccc2)cc(-c2ccc3c(N)n[nH]c3c2)n1 | 0.0251 | 0.02 | 0.2 | 2.51 | 3.16 |  | 
37 | Cc1cc(-c2ccc3c(N)n[nH]c3c2)nc(N)n1 | 7.94 |  | 3.98 | 3.98 | 12.6 |  | 
38 | COc1nccc(-c2ccc3c(N)n[nH]c3c2)n1 |  | 12.6 |  |  |  |  | 
39 | C[C@H]1CC[C@@H](C(=O)Nc2ccccc2)CN1c1cc(-c2ccc3c(N)n[nH]c3c2)nc(N)n1 | > 10 |  |  |  | 5.01 |  | 
40 | Nc1nc(NC2CCCC2)cc(-c2ccc3c(N)n[nH]c3c2)n1 | 0.398 |  | 2.51 | 6.31 | 7.94 |  | 
41 | C[C@@H]1CCCCN1c1cc(-c2ccc3c(N)n[nH]c3c2)nc(N)n1 | 7.94 | 0.126 | > 10 | > 10 | 25.1 |  | 
42 | Nc1nc(-c2ccc3c(N)n[nH]c3c2)cc(N2CCC[C@H](C(=O)Nc3ccccc3)C2)n1 | > 10 | 0.0316 | 7.94 | 2 | 1.26 |  | 
